Assay results from patent publication US12419902B2, “Anti-viral and anti-tumoral compounds” (priority 2019, dated 2025).
Converted amounts (≈) assume the structure as drawn.

How the values were obtained:
Influenza A (H1N1) = assay: microbe, parasite or virus in culture; assay type: cell-based
Influenza A (H5N1) = assay: microbe, parasite or virus in culture; assay type: cell-based
Influenza B = assay: microbe, parasite or virus in culture; assay type: cell-based
enterovirus-68 (EV-68) = assay type: cell-based
Zika virus [1] = conditions: nucleoside applied to cells, phosphorylated to ddhCTP; cited from earlier work
in vitro [2] = conditions: African green monkey
Zika virus [3] = assay type: cell-based
in vitro [4] = conditions: human
[5] = test system: Rift Valley fever virus (RVFV); assay: microbe, parasite or virus in culture; assay type: cell-based; conditions: Vero 76
RSV = assay: microbe, parasite or virus in culture; assay type: cell-based; conditions: human respiratory syncytial virus, MA104

O=c1ccn([C@@H]2OC(CO)=C[C@H]2O)c(=O)[nH]1 [AB21649]
antiviral activity (in words) (Influenza A (H1N1)): exhibits antiviral activity | antiviral activity (in words) (Influenza A (H5N1)): exhibits antiviral activity | antiviral activity (in words) (Influenza B): exhibits antiviral activity

Nc1ccn([C@@H]2OC(CO)=C[C@H]2O)c(=O)n1 [AB21650, 3′-deoxy-3′,4′-didehydro cytidine]
antiviral activity (in words) (enterovirus-68 (EV-68)): exhibits some activity | replication of Zika virus (Zika virus [1]): directly inhibit replication of Zika virus

Nc1nc2c(ncn2[C@@H]2OC(CO)=CC2O)c(=O)[nH]1 (stereo partly drawn) [AB21651]
antiviral activity (in words) (Influenza A (H1N1)): exhibits antiviral activity | antiviral activity (in words) (Influenza A (H5N1)): exhibits antiviral activity

CC(C)S(=O)(=O)n1c(N)nc2ccc(/C(=N/O)c3ccccc3)cc21 [Enviroxime]
CC50 (in vitro [2]): 3.3 µg/mL (≈ 9.21 µM)

C#C[C@@]1(O)[C@H](O)[C@@H](CO)O[C@H]1n1ccc2c(N)ncnc21 [NITD008]
EC50 (Zika virus [3]): 1.8 µg/mL (≈ 6.2 µM)

CCOC(=O)c1ccc(OCCC2CCN(c3ccc(C)nn3)CC2)cc1 [Pirodavir]
CC50 (in vitro [4]): 4.3 µg/mL (≈ 11.6 µM)

NC(=O)c1ncn([C@@H]2O[C@H](CO)[C@@H](O)[C@H]2O)n1 [Ribavirin]
EC50 [5]: 14 µg/mL (≈ 57.3 µM) | EC50 (Influenza A (H1N1); Influenza A virus, H1N1, MDCK): 4.6 µg/mL (≈ 18.8 µM) | EC50 (Influenza A (H5N1); Influenza A virus, H5N1, MDCK): 1.8 µg/mL (≈ 7.37 µM) | EC50 (Influenza B; Influenza B virus, MDCK): 1.4 µg/mL (≈ 5.73 µM) | EC50 (RSV): 7.3 µg/mL (≈ 29.9 µM)
